Data reported in patent US20260345619A1 (Principia Biopharma Inc., priority 2023, published 2026).

How the values were obtained:
[1] = Asthma Daytime Symptom Diary (ADSD) score; assay type: in vivo, human; settings: for LS mean difference versus placebo, ADSD symptom score: Week 12
Text: ADSD and ANSD are PRO measures developed by the PRO Consortium′ Asthma Working Group. Both instruments have been designed to measure asthma symptoms in adult and adolescent (12 years of age and older) patients diagnosed with mild to severe asthma. ADSD and ANSD assess asthma severity based on patient self-report of asthma core symptoms.
Other efficacy endpoints included: • Change from baseline in pre- and post-bronchodilator FEV1 and other lung function measurement (peak expiratory flow (PEF), forced vital capacity (FVC), forced expiratory flow (FEF) 25-75%) at each spirometry endpoint. • Asthma Control Questionnaire-5 (ACQ-5) score change from baseline at EOT and at each assessment time point. • Asthma Quality of Life Questionnaire with Standardized Activities (AQLQ(S)) Self-Administered score change from baseline at EOT and at each assessment time point. • Change from baseline at EOT and change from baseline at each week for asthma symptom scores in the morning and evening (ADSD and ANSD). Questionnaire was to be administered daily and score averaged weekly for analysis. • Change from baseline at EOT and change from baseline at each week in number of inhalations/day of albuterol or levalbuterol for symptom relief.
The ADSD and ANSD are PRO measures developed by the PRO Consortium′ Asthma Working Group. Both instruments have been designed to measure asthma symptoms in adult and adolescent (12 years of age and older) patients diagnosed with mild to severe asthma. ADSD and ANSD assess asthma severity based on patient self-report of asthma core symptoms, i.e., difficulty of breathing; wheezing; shortness of breath; chest tightness; chest pain; and cough. Patients were asked to complete the ADSD every night before they went to bed, thinking about their asthma symptoms on that day, from when they got up this morning until then; the ANSD when getting up, thinking about their asthma symptoms from the previous night from when they went to bed until then.
Both the ADSD and ANSD are composed of 6 items rated using an 11-point NRS that ranges from 0=None to 10=As bad as you can imagine (Gater et al. 2016). The participants were to record their daytime and nighttime asthma symptoms in an electronic diary, once in the evening and once in the morning, respectively. The participants were to complete the ADSD and the ANSD.

[2] = test system: platelet aggregation; settings: healthy volunteers or patients with ITP; cited from earlier work
[3] = Safety: adverse events (TEAEs, SAEs, AESIs), vital signs, labs; assay type: in vivo, human; settings: for Participants with any TEAE / Participants with any TEAE leading to death / Participants with any TEAE related to IMP / Participants with any severe TEAE / Participants with any treatment emergent AESI / Participants with any treatment emergent SAE: safety population
Text: In terms of safety, […], adverse events of special interest (AESIs), vital signs, and laboratory analyses were to be reported.
Safety assessments included physical examinations, measurements of vital signs, electrocardiograms, clinical safety laboratory assessments, and pregnancy testing.
An AE is any untoward medical occurrence in a patient or clinical study participant, temporally associated with the use of study intervention, whether or not considered related to the study intervention.
An adverse event of special interest (AESI) is an AE (serious or nonserious) of scientific and medical concern specific to the Sponsor's product or program, for which ongoing monitoring and immediate notification by the Investigator to the Sponsor was required. Such events may have required further investigation in order to characterize and understand them. Adverse events of special interest may have been added, modified or removed during a study by protocol amendment. AESIs include the following: • Pregnancy of a participant entered in a study as well as pregnancy occurring in a female partner of a participant entered in a study with IMP. • Symptomatic overdose (serious or nonserious) with IMP. • Other project-specific AESI(s), including: severe infections including opportunistic infections; tuberculosis or initiation of medications for suspected tuberculosis; active COVID-19 infection as documented by a positive COVID-19 molecular test; major hemorrhagic events, including symptomatic bleeding in a critical area or organ such as the CNS, or intraocular bleeding, resulting in an SAE; serious adverse events (or non-serious adverse events with a severity level consistent with Grade 3 CTCAE of cytopenia; and atrial fibrillation.
The safety variables, including AEs, vital signs, physical examination, and laboratory values were to be summarized using descriptive statistics in each treatment group in the safety population.
All safety analyses were to be performed on the safety population. The baseline value is defined generally as the last available value before the first dose of IMP.
In general, AEs were to be analyzed in the following 3 categories: • Pre-treatment AEs: AEs that developed, worsened, or became serious during the pre-treatment period. • TEAEs: AEs that developed, worsened, or became serious during the treatment-emergent period. • Post-treatment AEs: AEs that developed, worsened, or became serious during the post-treatment period.

[4] = test system: B cell lymphocyte kinase (BLK); settings: cited from earlier work
[5] = ITP, cited from earlier work
[6] = test system: BTK; settings: over 24 h; cited from earlier work
[7] = test system: 251 kinases sharing a common cysteine in their active site; settings: cited from earlier work
[8] = humans, oral; cited from earlier work

Which results are given for `CC(C)(C=C(C#N)C(=O)N1CCC[C@@H](n2nc(-c3ccc(Oc4ccccc4)cc3F)c3c(N)ncnc32)C1)N1CCN(C2COC2)CC1` (mixture of isomers) [rilzabrutinib, (R)-2-[3-[4-amino-3-(2-fluoro-4-phenoxy-phenyl)pyrazolo[3,4-d]pyrimidin-1-yl]piperidine-1-carbonyl]-4-methyl-4-[4-(oxetan-3-yl)piperazin-1-yl]pent-2-enenitrile]?
LS mean ADSD change from baseline at Week 12 ([1]; 400 mg BID): −0.27; LS mean difference versus placebo, ADSD symptom score ([1]; 400 mg BID, 95% CI −1.03, 0.26, nominal p=0.2377): −0.39; LS mean ADSD change from baseline at Week 12 ([1]; 400 mg TID): −0.43; LS mean difference versus placebo, ADSD symptom score ([1]; 400 mg TID, 95% CI −1.15, 0.14, nominal p=0.1276): −0.50; ADSD symptom score (in words) ([1]; both cohorts, Week 12, all components): improvement in ADSD and ANSD symptom score; bleeding problems [2]: does not lead to bleeding problems; overall safety ([3]; 400 mg BID and TID, asthma): generally safe, with no evidence of new safety concerns; Participants with any TEAE ([3]; 400 mg BID, N = 32): 14 (43.8) n (%); Participants with any TEAE leading to death ([3]; 400 mg BID, N = 32): 0 n (%); Participants with any TEAE related to IMP ([3]; 400 mg BID, N = 32): 5 (15.6) n (%); Participants with any severe TEAE ([3]; 400 mg BID, N = 32): 0 n (%); Participants with any treatment emergent AESI ([3]; 400 mg BID, N = 32): 1 (3.1) n (%); Participants with any treatment emergent SAE ([3]; 400 mg BID, N = 32): 2 (6.3) n (%); Participants with any TEAE ([3]; 400 mg TID, N = 64): 26 (40.6) n (%); Participants with any TEAE leading to death ([3]; 400 mg TID, N = 64): 0 n (%); Participants with any TEAE related to IMP ([3]; 400 mg TID, N = 64): 10 (15.6) n (%); Participants with any severe TEAE ([3]; 400 mg TID, N = 64): 1 (1.6) n (%); Participants with any treatment emergent AESI ([3]; 400 mg TID, N = 64): 3 (4.7) n (%); Participants with any treatment emergent SAE ([3]; 400 mg TID, N = 64): 0 n (%); Participants with any TEAE ([3]; combined BID and TID, N = 96): 40 (41.7) n (%); Participants with any TEAE leading to death ([3]; combined BID and TID, N = 96): 0 n (%); Participants with any TEAE related to IMP ([3]; combined BID and TID, N = 96): 15 (15.6) n (%); Participants with any severe TEAE ([3]; combined BID and TID, N = 96): 1 (1.0) n (%); Participants with any treatment emergent AESI ([3]; combined BID and TID, N = 96): 4 (4.2) n (%); Participants with any treatment emergent SAE ([3]; combined BID and TID, N = 96): 2 (2.1) n (%); IC50 [4]: 6.3 nM; treatment-emergent serious adverse events (TESAEs) ([5]; Phase 1/2): no treatment-emergent serious adverse events (TESAEs) observed; participants achieving the primary response endpoint ([5]; treatment for at least 12 weeks): 50%; sustained target occupancy [6]: high sustained occupancy over 24 h; number of kinases inhibited (>90% inhibition) ([7]; 1 μM, panel of 251 kinases): 6 kinases; cross-reactivity with other molecules ([7]; in comparison to first and second generation BTKi): minimal cross-reactivity; absorption [8]: rapidly absorbed; half-life [8]: 3 to 4 h; pharmacokinetic variability [8]: variable pharmacokinetics
